Experimental data: PubChem BioAssay (NCI)
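Exposure lasted 48 hours, with cells grown in 96-well plates and compounds tested at five concentrations. TGI denotes the concentration required for complete inhibition of growth.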

Columns and labels:
Experiment in all cases: NCI-60 cell line screen, 48 h
786-0 renal = test system: 786-0 renal
A498 renal = test system: A498 renal
A549 NSCLC = test system: A549 NSCLC
ACHN renal = test system: ACHN renal
BT-549 breast = test system: BT-549 breast
CCRF-CEM leukemia = test system: CCRF-CEM leukemia
COLO 205 colon = test system: COLO 205 colon
EKVX NSCLC = test system: EKVX NSCLC
HCC-2998 colon = test system: HCC-2998 colon
HCT-116 colon = test system: HCT-116 colon
HCT-15 colon = test system: HCT-15 colon
HL-60(TB) leukemia = test system: HL-60(TB) leukemia
HOP-62 NSCLC = test system: HOP-62 NSCLC
HOP-92 NSCLC = test system: HOP-92 NSCLC
HS 578T breast = test system: HS 578T breast
HT29 colon = test system: HT29 colon
IGROV1 ovarian = test system: IGROV1 ovarian
K-562 leukemia = test system: K-562 leukemia
KM12 colon = test system: KM12 colon
LOX IMVI melanoma = test system: LOX IMVI melanoma
M14 melanoma = test system: M14 melanoma
MALME-3M melanoma = test system: MALME-3M melanoma
MCF7 breast = test system: MCF7 breast
MDA-MB-231 breast = test system: MDA-MB-231 breast
MDA-MB-435 = test system: MDA-MB-435
MDA-N = test system: MDA-N
MOLT-4 leukemia = test system: MOLT-4 leukemia
NCI-H226 lung = test system: NCI-H226 lung
NCI-H23 lung = test system: NCI-H23 lung
NCI-H460 lung = test system: NCI-H460 lung
NCI-H522 lung = test system: NCI-H522 lung
NCI/ADR-RES ovarian = test system: NCI/ADR-RES ovarian
OVCAR-3 ovarian = test system: OVCAR-3 ovarian
OVCAR-4 ovarian = test system: OVCAR-4 ovarian
OVCAR-5 ovarian = test system: OVCAR-5 ovarian
OVCAR-8 ovarian = test system: OVCAR-8 ovarian
PC-3 prostate = test system: PC-3 prostate
RPMI-8226 leukemia = test system: RPMI-8226 leukemia
RXF 393 renal = test system: RXF 393 renal
SF-268 CNS = test system: SF-268 CNS
SF-295 CNS = test system: SF-295 CNS
SF-539 CNS = test system: SF-539 CNS
SK-MEL-2 melanoma = test system: SK-MEL-2 melanoma
SK-MEL-28 melanoma = test system: SK-MEL-28 melanoma
SK-MEL-5 melanoma = test system: SK-MEL-5 melanoma
SK-OV-3 ovarian = test system: SK-OV-3 ovarian
SN12C renal = test system: SN12C renal
SNB-19 CNS = test system: SNB-19 CNS
SNB-75 CNS = test system: SNB-75 CNS
SR leukemia = test system: SR leukemia
SW-620 colon = test system: SW-620 colon
T-47D breast = test system: T-47D breast
TK-10 renal = test system: TK-10 renal
U251 CNS = test system: U251 CNS
UACC-257 melanoma = test system: UACC-257 melanoma
UACC-62 melanoma = test system: UACC-62 melanoma
UO-31 renal = test system: UO-31 renal
CAKI-1 renal = test system: CAKI-1 renal
DU-145 prostate = test system: DU-145 prostate

CN1CCN([C@H]2C[C@H]3[C@@H]4CC=C5C[C@@H](N6CCCC6)CC[C@]5(C)[C@H]4CC[C@]3(C)[C@H]2O)CC1 was tested, and the TGI (786-0 renal) was over 100 µM, the TGI (A498 renal) was over 100 µM and the TGI (A549 NSCLC) was over 100 µM. The TGI (ACHN renal) was over 100 µM, the TGI (BT-549 breast) was over 100 µM and the TGI (CCRF-CEM leukemia) was over 100 µM. The TGI (COLO 205 colon) was over 100 µM, the TGI (EKVX NSCLC) was over 100 µM and the TGI (HCC-2998 colon) was 97.8 µM. For the same molecule, the TGI (HCT-116 colon) was over 100 µM, the TGI (HCT-15 colon) was over 100 µM and the TGI (HL-60(TB) leukemia) was 47.9 µM. It also gave a TGI (HOP-62 NSCLC) of over 100 µM, a TGI (HOP-92 NSCLC) of over 100 µM and a TGI (HS 578T breast) of over 100 µM. The TGI (HT29 colon) was over 100 µM, the TGI (IGROV1 ovarian) was over 100 µM and the TGI (K-562 leukemia) was 34.2 µM. For the same molecule, the TGI (KM12 colon) was over 100 µM, the TGI (LOX IMVI melanoma) was 39.1 µM and the TGI (M14 melanoma) was 29.8 µM. It also gave a TGI (MALME-3M melanoma) of 35.8 µM, a TGI (MCF7 breast) of over 100 µM and a TGI (MDA-MB-231 breast) of over 100 µM. The TGI (MDA-MB-435) was over 100 µM, the TGI (MDA-N) was 55 µM and the TGI (MOLT-4 leukemia) was over 100 µM. The TGI (NCI-H226 lung) was over 100 µM, the TGI (NCI-H23 lung) was over 100 µM and the TGI (NCI-H460 lung) was over 100 µM. The TGI (NCI-H522 lung) was over 100 µM, the TGI (NCI/ADR-RES ovarian) was over 100 µM and the TGI (OVCAR-3 ovarian) was over 100 µM. The TGI (OVCAR-4 ovarian) was over 100 µM, the TGI (OVCAR-5 ovarian) was over 100 µM and the TGI (OVCAR-8 ovarian) was over 100 µM. The TGI (PC-3 prostate) was over 100 µM, the TGI (RPMI-8226 leukemia) was 53.6 µM and the TGI (RXF 393 renal) was 42.8 µM. For the same molecule, the TGI (SF-268 CNS) was over 100 µM, the TGI (SF-295 CNS) was over 100 µM and the TGI (SF-539 CNS) was 30.6 µM. It also gave a TGI (SK-MEL-2 melanoma) of over 100 µM, a TGI (SK-MEL-28 melanoma) of 55.8 µM and a TGI (SK-MEL-5 melanoma) of 39.9 µM. The TGI (SK-OV-3 ovarian) was over 100 µM, the TGI (SN12C renal) was over 100 µM and the TGI (SNB-19 CNS) was over 100 µM. It also gave a TGI (SNB-75 CNS) of over 100 µM, a TGI (SR leukemia) of 16.4 µM and a TGI (SW-620 colon) of over 100 µM. The TGI (T-47D breast) was over 100 µM, the TGI (TK-10 renal) was over 100 µM and the TGI (U251 CNS) was over 100 µM. It also gave a TGI (UACC-257 melanoma) of 48.3 µM, a TGI (UACC-62 melanoma) of over 100 µM and a TGI (UO-31 renal) of over 100 µM.

For CN1C2CCC1CC(CC(=O)NC(c1ccc(F)cc1)c1ccc(F)cc1)C2 (stereo not drawn), the TGI (786-0 renal) was over 100 µM, the TGI (A498 renal) was over 100 µM and the TGI (A549 NSCLC) was over 100 µM. For the same molecule, the TGI (ACHN renal) was over 100 µM, the TGI (BT-549 breast) was over 100 µM and the TGI (CAKI-1 renal) was over 100 µM. The TGI (CCRF-CEM leukemia) was 80.6 µM, the TGI (COLO 205 colon) was 44.2 µM and the TGI (DU-145 prostate) was over 100 µM. The TGI (EKVX NSCLC) was over 100 µM, the TGI (HCT-116 colon) was over 100 µM and the TGI (HCT-15 colon) was over 100 µM. For the same molecule, the TGI (HL-60(TB) leukemia) was 6.66 µM, the TGI (HOP-62 NSCLC) was over 100 µM and the TGI (HOP-92 NSCLC) was over 100 µM. For the same molecule, the TGI (HS 578T breast) was over 100 µM, the TGI (HT29 colon) was over 100 µM and the TGI (IGROV1 ovarian) was over 100 µM. The TGI (K-562 leukemia) was over 100 µM, the TGI (KM12 colon) was over 100 µM and the TGI (LOX IMVI melanoma) was over 100 µM. It also gave a TGI (M14 melanoma) of 33.7 µM, a TGI (MALME-3M melanoma) of 60.4 µM and a TGI (MDA-MB-231 breast) of over 100 µM. For the same molecule, the TGI (MDA-MB-435) was over 100 µM, the TGI (MDA-N) was over 100 µM and the TGI (MOLT-4 leukemia) was over 100 µM. For the same molecule, the TGI (NCI-H226 lung) was over 100 µM, the TGI (NCI-H23 lung) was over 100 µM and the TGI (NCI-H460 lung) was over 100 µM. For the same molecule, the TGI (NCI-H522 lung) was over 100 µM, the TGI (NCI/ADR-RES ovarian) was over 100 µM and the TGI (OVCAR-3 ovarian) was over 100 µM. For the same molecule, the TGI (OVCAR-4 ovarian) was over 100 µM, the TGI (OVCAR-5 ovarian) was over 100 µM and the TGI (OVCAR-8 ovarian) was over 100 µM. The TGI (PC-3 prostate) was over 100 µM, the TGI (RPMI-8226 leukemia) was over 100 µM and the TGI (RXF 393 renal) was over 100 µM. The TGI (SF-268 CNS) was over 100 µM, the TGI (SF-295 CNS) was over 100 µM and the TGI (SF-539 CNS) was over 100 µM. It also gave a TGI (SK-MEL-2 melanoma) of 49 µM, a TGI (SK-MEL-28 melanoma) of 55.1 µM and a TGI (SK-MEL-5 melanoma) of 45.1 µM. It also gave a TGI (SK-OV-3 ovarian) of over 100 µM, a TGI (SN12C renal) of over 100 µM and a TGI (SNB-19 CNS) of over 100 µM. The TGI (SNB-75 CNS) was over 100 µM, the TGI (SR leukemia) was 89.5 µM and the TGI (SW-620 colon) was over 100 µM. It also gave a TGI (T-47D breast) of over 100 µM, a TGI (TK-10 renal) of over 100 µM and a TGI (U251 CNS) of over 100 µM. The TGI (UACC-257 melanoma) was 39.4 µM and the TGI (UO-31 renal) was over 100 µM.
